Reference: patent publication US7989445B2, “Thienopyrimidone compound” (Takeda Pharmaceutical Company Limited, priority 2005, dated 2011)
Structures can show the parent of a compound that is named as a salt.

First: CC(=O)NC1CCN(Cc2ccc(CCn3cnc4cc(-c5ccc(Cl)cc5)sc4c3=O)cc2)C1 (centres unmarked) [Example 36, N-[1-(4-{2-[6-(4-chlorophenyl)-4-oxothieno[3,2-d]pyrimidin-3(4H)-yl]ethyl}benzyl)pyrrolidin-3-yl]acetamide]
Second: O=C1CN(Cc2ccc(CCn3cnc4cc(-c5ccc(Cl)cc5)sc4c3=O)cc2)CCN1 [Example 35, 6-(4-chlorophenyl)-3-(2-{4-[(3-oxopiperazin-1-yl)methyl]phenyl}ethyl)thieno[3,2-d]pyrimidin-4(3H)-one]
The melting point of the first is lower: 196 to 198 °C for the first, 232 to 234 °C for the second.

Compared with CNC(=O)CN(C)Cc1ccc(CCn2cnc3cc(-c4ccc(Cl)cc4)sc3c2=O)cc1 [Example 31, N^2-(4-{2-[6-(4-chlorophenyl)-4-oxothieno[3,2-d]pyrimidin-3(4H) -yl]ethyl}benzyl)-N,N^2-dimethylglycinamide], CN(CC(=O)O)Cc1ccc(CCn2cnc3cc(-c4ccc(Cl)cc4)sc3c2=O)cc1 (as salt: hydrochloride) [Example 30, N-(4-{2-[6-(4-chlorophenyl)-4-oxothieno[3,2-d]pyrimidin-3(4H) -yl]ethyl}benzyl)-N-methylglycine dihydrochloride] is higher in melting point: 146 to 149 °C for the first, 252 to 253 °C for the second.

First: CN(C)C(=O)N(C)Cc1ccc(CCn2cnc3cc(-c4ccc(Cl)cc4)sc3c2=O)cc1 [Example 8, N-(4-{2-[6-(4-chlorophenyl)-4-oxothieno[3,2-d]pyrimidin-3(4H) -yl]ethyl}benzyl)-N,N′,N′-trimethylurea]
Second: CNCC(=O)N(C)Cc1ccc(CCn2cnc3cc(-c4ccc(Cl)cc4)sc3c2=O)cc1 [Example 28, N-(4-{2-[6-(4-chlorophenyl)-4-oxothieno[3,2-d]pyrimidin-3(4H) -yl]ethyl}benzyl)-N,N^2-dimethylglycinamide]
The melting point of the first is lower: 160 to 165 °C for the first, 166 to 169 °C for the second.

Going from CN(Cc1ccc(CCn2cnc3cc(-c4ccc(Cl)cc4)sc3c2=O)cc1)C(=O)C1CC1 [Example 7, N-(4-{2-[6-(4-chlorophenyl)-4-oxothieno[3,2-d]pyrimidin-3(4H) -yl]ethyl}benzyl)-N-methylcyclopropanecarboxamide] to CN(Cc1ccc(CCn2cnc3cc(-c4ccc(Cl)cc4)sc3c2=O)cc1)C(=O)CC(C)(C)C [Example 5, N-(4-{2-[6-(4-chlorophenyl)-4-oxothieno[3,2-d]pyrimidin-3(4H)-yl]ethyl}benzyl)-N,3,3-trimethylbutanamide], the melting point rises from 178 °C to 181 °C.

First: CN(CC(=O)OC(C)(C)C)Cc1ccc(CCn2cnc3cc(-c4ccc(Cl)cc4)sc3c2=O)cc1 [Example 29, N-(4-{2-[6-(4-chlorophenyl)-4-oxothieno[3,2-d]pyrimidin-3(4H) -yl]ethyl}benzyl)-N-methylglycine tert-butyl ester]
Second: CN(Cc1ccc(CCn2cnc3cc(-c4ccc(Cl)cc4)sc3c2=O)cc1)C(=O)OC(C)(C)C [Example 3, tert-butyl N-(4-{2-[6-(4-chlorophenyl)-4-oxothieno[3,2-d]pyrimidin-3(4H)-yl]ethyl}benzyl)-N-methylcarbamate]
The melting point of the first is lower: 130 °C for the first, 206 to 209 °C for the second.

First: CC(=O)N1CCN(Cc2ccc(CCn3cnc4cc(-c5ccc(Cl)cc5)sc4c3=O)cc2)C(=O)C1 [Example 39, 3-(2-{4-[(4-acetyl-2-oxopiperazin-1-yl)methyl]phenyl}ethyl)-6-(4-chlorophenyl)thieno[3,2-d]pyrimidin-4(3H)-one]
Second: CC(C)(C)OC(=O)N1CCN(Cc2ccc(CCn3cnc4cc(-c5ccc(Cl)cc5)sc4c3=O)cc2)C(=O)C1 [Example 37, tert-butyl 4-(4-{2-[6-(4-chlorophenyl)-4-oxothieno[3,2-d]pyrimidin-3(4H)-yl]ethyl}benzyl)-3-oxopiperazine-1-carboxylate]
The melting point of the first is higher: 204 to 207 °C for the first, 165 to 170 °C for the second.

Compared with CC(=O)N(C)N(C(=O)OC(C)(C)C)c1ccc(CCn2cnc3cc(-c4ccc(Cl)cc4)sc3c2=O)cc1 [Example 20], CN(Cc1ccc(CCn2cnc3cc(-c4ccc(Cl)cc4)sc3c2=O)cc1)S(C)(=O)=O [Example 24, N-(4-{2-[6-(4-chlorophenyl)-4-oxothieno[3,2-d]pyrimidin-3(4H) -yl]ethyl}benzyl)-N-methylmethanesulfonamide] is higher in melting point: 193 to 194 °C for the first, 230 to 232 °C for the second.

First: O=C(Cn1cnc2cc(-c3ccc(Cl)cc3)sc2c1=O)c1ccc2c(c1)CCN(C(=O)C(F)(F)F)CC2 [Example 10, 6-(4-chlorophenyl)-3-{2-oxo-2-[3-(trifluoroacetyl) -2,3,4,5-tetrahydro-1H-3-benzazepin-7-yl]ethyl}thieno[3,2-d]pyrimidin-4(3H)-one]
Second: CN(C(=O)C(F)(F)F)C1Cc2ccc(C(=O)Cn3cnc4cc(-c5ccc(Cl)cc5)sc4c3=O)cc2C1 (centres unmarked) [Example 15, N-(5-{[6-(4-chlorophenyl)-4-oxothieno[3,2-d]pyrimidin-3(4H) -yl]acetyl}-2,3-dihydro-1H-inden-2-yl)-2,2,2-trifluoro-N -methylacetamide]
The melting point of the first is higher: 285 to 287 °C for the first, 245 to 248 °C for the second.

First: CC(c1ccc(CCn2cnc3cc(-c4ccc(Cl)cc4)sc3c2=O)cc1)N1CC[C@H](F)C1 (stereo partly drawn) [Example 19, 6-(4-chlorophenyl)-3-[2-[4-[1-[(3S)-3-fluoropyrrolidin-1-yl]ethyl]phenyl]ethyl]thieno[3,2-d]pyrimidin-4(3H)-one]
Second: O=C1C[C@@H](O)CN1Cc1ccc(CCn2cnc3cc(-c4ccc(Cl)cc4)sc3c2=O)cc1 [Example 33, 6-(4-chlorophenyl)-3-[2-(4-{[(4R)-4-hydroxy-2-oxopyrrolidin-1-yl]methyl}phenyl)ethyl]thieno[3,2-d]pyrimidin-4(3H)-one]
The melting point of the first is lower: 160 to 163 °C for the first, 243 to 246 °C for the second.

First: CNC1Cc2ccc(C(=O)Cn3cnc4cc(-c5ccc(Cl)cc5)sc4c3=O)cc2C1 (centres unmarked) [Example 16, 6-(4-chlorophenyl)-3-{2-[2-(methylamino)-2,3-dihydro-1H-inden-5-yl]-2-oxoethyl}thieno[3,2-d]pyrimidin-4(3H)-one]
Second: CC(=O)N(C)Cc1ccc(C(=O)Cn2cnc3cc(-c4ccc(Cl)cc4)sc3c2=O)cc1 [Example 14, N-(4-{[6-(4-chlorophenyl)-4-oxothieno[3,2-d]pyrimidin-3(4H) -yl]acetyl}benzyl)-N-methylacetamide]
The melting point of the first is lower: 226 to 229 °C for the first, 250 to 251 °C for the second.

First: CCN1CCN(Cc2ccc(CCn3cnc4cc(-c5ccc(Cl)cc5)sc4c3=O)cc2)C(=O)C1=O [Example 34, 1-(4-{2-[6-(4-chlorophenyl)-4-oxothieno[3,2-d]pyrimidin-3(4H) -yl]ethyl}benzyl)-4-ethylpiperazine-2,3-dione]
Second: O=C1CCCCN1Cc1ccc(CCn2cnc3cc(-c4ccc(Cl)cc4)sc3c2=O)cc1 [Example 25, 6-(4-chlorophenyl)-3-(2-{4-[(2-oxopiperidin-1-yl)methyl]phenyl}ethyl)thieno[3,2-d]pyrimidin-4(3H)-one]
The melting point of the first is higher: 285 to 288 °C for the first, 199 to 201 °C for the second.

Compared with O=C1CCCCN1Cc1ccc(CCn2cnc3cc(-c4ccc(F)cc4)sc3c2=O)cc1 [Example 26, 6-(4-fluorophenyl)-3-(2-{4-[(2-oxopiperidin-1-yl)methyl]phenyl}ethyl)thieno[3,2-d]pyrimidin-4(3H)-one], O=C1CNCCN1Cc1ccc(CCn2cnc3cc(-c4ccc(Cl)cc4)sc3c2=O)cc1 (as salt: hydrochloride) [Example 38, 6-(4-chlorophenyl)-3-(2-{4-[(2-oxopiperazin-1-yl)methyl]phenyl}ethyl)thieno[3,2-d]pyrimidin-4(3H)-one dihydrochloride] is higher in melting point: 216 to 217 °C for the first, 271 to 278 °C for the second.

In the case of CN(Cc1ccc(C(=O)Cn2cnc3cc(-c4ccc(Cl)cc4)sc3c2=O)cc1)C(=O)C(F)(F)F [Example 12, N-(4-{[6-(4-chlorophenyl)-4-oxothieno[3,2-d]pyrimidin-3(4H) -yl]acetyl}benzyl)-2,2,2-trifluoro-N-methylacetamide], the melting point is reported as 235 to 238 °C.

With CNCc1ccc(CCn2cnc3cc(-c4ccc(Cl)cc4)sc3c2=O)cc1 (as salt: hydrochloride) [Example 4, 6-(4-chlorophenyl)-3-(2-{4-[(methylamino)methyl]phenyl}ethyl)thieno[3,2-d]pyrimidin-4(3H)-one dihydrochloride] the melting point was over 300 °C.
